From ChEMBL document CHEMBL5154781, “Discovery of Novel Sertraline Derivatives as Potent Anti-Cryptococcus Agents” (J Med Chem, 2022)
Converted amounts (≈) assume the structure as drawn. The source made the active and inactive calls. No cut-off for these calls is given here.

Experiments:
Cryptococcus neoformans [1] = assay: microbe, parasite or virus in culture; format: functional, organism-based; details: H99, 72 h
Description: Anti-cryptococcal activity against Cryptococcus neoformans H99 assessed as inhibition of fungal growth incubated for 72 hrs by microdilution method

Cryptococcus neoformans [2] = assay: Inhibition of biofilm formation in Cryptococcus neoformans H99 at 0.5 to 8 ug/ml incubated for 24 hrs by XTT reduction assay; format: functional, organism-based; details: dose 0.5-8 µg/ml, DDE = dose-dependent effect
Cryptococcus neoformans [3] = assay: Inhibition of biofilm formation in Cryptococcus neoformans H99 at 2 ug/ml incubated for 24 hrs by XTT reduction assay; format: functional
Cryptococcus neoformans [4] = assay: Anti-cryptococcal activity against Cryptococcus neoformans H99 assessed as inhibition of fungal growth at 4 to 8 ug/ml measured for 3 to 48 hrs by time-growth curve assay; format: functional, organism-based; details: dose 4-8 µg/ml, time 3-48 hrs
[5] = microbe, parasite or virus in culture; format: functional; details: Cryptococcus; time 72 hrs
Description: Anti-cryptococcal activity against Cryptococcus assessed as inhibition of fungal growth incubated for 72 hrs by microdilution method

[Candida] auris [6] = microbe, parasite or virus in culture; format: functional, organism-based; details: Candidozyma auris, 0029, 48 h
Description: Antifungal activity against Candida auris 0029 assessed as inhibition of fungal growth incubated for 48 hrs by microdilution method

Cryptococcus neoformans [7] = assay: Inhibition of Cryptococcus neoformans H99 delta5,6-desaturase assessed as upregulation of ERG3 gene expression at 2 ug/ml incubated for 24 hrs by RT-PCR analysis; details: dose 2.0 µg/ml
Cryptococcus neoformans [8] = assay: Inhibition of Cryptococcus neoformans H99 delta5,6-desaturase assessed as upregulation of ERG1 gene expression at 2 ug/ml incubated for 24 hrs by RT-PCR analysis; details: dose 2.0 µg/ml
Cryptococcus neoformans [9] = assay: Inhibition of Cryptococcus neoformans H99 delta5,6-desaturase assessed as upregulation of ERG4 gene expression at 2 ug/ml incubated for 24 hrs by RT-PCR analysis; details: dose 2.0 µg/ml
Cryptococcus neoformans [10] = assay: Anti-cryptococcal activity against Cryptococcus neoformans H99 assessed as inhibition of fungal growth at 1 to 8 ug/ml incubated upto 72 hrs by time-growth curve assay; format: functional, organism-based; details: dose 1-8 µg/ml
Cryptococcus neoformans [11] = assay: Inhibition of biofilm formation in Cryptococcus neoformans H99 at 8 ug/ml incubated for 24 hrs by XTT reduction assay; format: functional
Cryptococcus neoformans [12] = assay: Inhibition of Cryptococcus neoformans H99 delta5,6-desaturase assessed as upregulation of ERG5 gene expression at 2 ug/ml incubated for 24 hrs by RT-PCR analysis; details: dose 2.0 µg/ml
Candida albicans [13] = assay: microbe, parasite or virus in culture; format: functional, organism-based; details: Candida albicans, 0304103, 48 h
Description: Antifungal activity against Candida albicans 0304103 assessed as inhibition of fungal growth incubated for 48 hrs by microdilution method

Aspergillus fumigatus [14] = assay: microbe, parasite or virus in culture; format: functional, organism-based; details: 023-2, 48 h
Description: Antifungal activity against Aspergillus fumigatus 023-2 assessed as inhibition of fungal growth incubated for 48 hrs by microdilution method

Pichia kudriavzevii = assay: microbe, parasite or virus in culture; format: functional, organism-based; details: Pichia kudriavzevii, 10153, 48 h
Description: Antifungal activity against Candida krusei 10153 assessed as inhibition of fungal growth incubated for 48 hrs by microdilution method

Nakaseomyces glabratus [15] = assay: microbe, parasite or virus in culture; format: functional, organism-based; details: Nakaseomyces glabratus, 9025, 48 h
Description: Antifungal activity against Candida glabrata 9025 assessed as inhibition of fungal growth incubated for 48 hrs by microdilution method

Aspergillus fumigatus [16] = assay: microbe, parasite or virus in culture; format: functional, organism-based; details: Aspergillus fumigatus, 7544, 48 h
Description: Antifungal activity against Aspergillus fumigatus 7544 assessed as inhibition of fungal growth incubated for 48 hrs by microdilution method

Cryptococcus neoformans [17] = assay: Inhibition of Cryptococcus neoformans H99 delta5,6-desaturase assessed as upregulation of ERG11 gene expression at 2 ug/ml incubated for 24 hrs by RT-PCR analysis; details: dose 2.0 µg/ml
Cryptococcus neoformans [18] = assay: Inhibition of Cryptococcus neoformans H99 delta5,6-desaturase assessed as upregulation of ERG24 gene expression at 2 ug/ml incubated for 24 hrs by RT-PCR analysis; details: dose 2.0 µg/ml
Candida albicans [19] = assay: microbe, parasite or virus in culture; format: functional, organism-based; details: Candida albicans, 904, 48 h
Description: Antifungal activity against Candida albicans 904 assessed as inhibition of fungal growth incubated for 48 hrs by microdilution method

[Candida] auris [20] = Antifungal activity against Candida auris 15448 assessed as inhibition of fungal growth incubated for 48 hrs by microdilution method; format: functional, organism-based; details: Candidozyma auris, 15448, 48 h
Candida tropicalis = assay: microbe, parasite or virus in culture; format: functional, organism-based; details: Candida tropicalis, 10186, 48 h
Description: Antifungal activity against Candida tropicalis 10186 assessed as inhibition of fungal growth incubated for 48 hrs by microdilution method

Candida albicans [21] = assay: microbe, parasite or virus in culture; format: functional, organism-based; details: SC5314, 48 h
Description: Antifungal activity against Candida albicans SC5314 assessed as inhibition of fungal growth incubated for 48 hrs by microdilution method

[Candida] auris [22] = microbe, parasite or virus in culture; format: functional, organism-based; details: Candidozyma auris, 0030, 48 h
Description: Antifungal activity against Candida auris 0030 assessed as inhibition of fungal growth incubated for 48 hrs by microdilution method

Nakaseomyces glabratus [23] = assay: microbe, parasite or virus in culture; format: functional, organism-based; details: Nakaseomyces glabratus, 9073, 48 h
Description: Antifungal activity against Candida glabrata 9073 assessed as inhibition of fungal growth incubated for 48 hrs by microdilution method

Cryptococcus neoformans [24] = assay: Inhibition of Cryptococcus neoformans H99 delta5,6-desaturase assessed as upregulation of ERG2 gene expression at 2 ug/ml incubated for 24 hrs by RT-PCR analysis; details: dose 2.0 µg/ml
Cryptococcus neoformans [25] = assay: Fungicidal activity against Cryptococcus neoformans H99 assessed as fungal growth inhibition incubated upto 72 hrs by time-fungicidal curve assay; format: functional
[26] = Metabolic stability in mouse liver microsomes assessed as clearance; format: ADME, Microsome
[27] = […] in ICR mouse model of Cryptococcal meningitis infected with Cryptococcus neoformans H99 assessed as median survival time at 15 mg/kg, IG administered daily (reference value: 11 day); format: organism-based; details: in vivo, po, 264 h
[28] = Metabolic stability in mouse liver microsomes assessed as half life; format: ADME, Microsome

CNC1CCC(c2ccc(Cl)c(Cl)c2)c2sccc21.Cl (configuration not stated)
IC50 (Cryptococcus neoformans [1]): 8 µg/mL

Cl.Clc1ccc(C2CCC(NC3CCOCC3)c3ccsc32)cc1Cl (configuration not stated)
IC50 (Cryptococcus neoformans [1]): 4 µg/mL

Cl.Clc1ccc(C2CCC(NCCC3CCCCC3)c3ccsc32)cc1Cl (configuration not stated)
IC50 (Cryptococcus neoformans [1]): 1 µg/mL
inhibition (Cryptococcus neoformans [2]): Dde
inhibition at 2 µg/mL (Cryptococcus neoformans [3]): 50%
Activity (Cryptococcus neoformans [4]): Active

Cl.Clc1ccc(C2CCC(NC3CCCC3)c3ccsc32)cc1Cl (configuration not stated)
IC50 (Cryptococcus neoformans [1]): 8 µg/mL

Cl.Clc1ccc(C2CCC(NCCC3CCCCC3)c3ccsc32)c(Cl)c1 (configuration not stated)
IC50 (Cryptococcus neoformans [1]): 4 µg/mL

Cl.Clc1ccc(C2CCC(NCCC3CCCCC3)c3ccsc32)cc1 (configuration not stated)
IC50 (Cryptococcus neoformans [1]): 64 µg/mL

CC(C)NC1CCC(c2ccc(Cl)c(Cl)c2)c2sccc21.Cl (configuration not stated)
IC50 (Cryptococcus neoformans [1]): 16 µg/mL

CN(C)C1CCC(c2ccc(Cl)c(Cl)c2)c2sccc21.Cl (configuration not stated)
IC50 (Cryptococcus neoformans [1]): 32 µg/mL

Cl.Clc1ccc(C2CCC(NC3CCCCC3)c3ccsc32)cc1Cl (configuration not stated)
IC50 (Cryptococcus neoformans [1]): 8 µg/mL

OC(Cn1cncn1)(Cn1cncn1)c1ccc(F)cc1F [FLUCONAZOLE]
MIC50 [5]: 1.14 µg/mL (≈ 3.72 µM)
IC50 ([Candida] auris [6]): > 64 µg/mL
Activity (Cryptococcus neoformans [7]): Active
Activity (Cryptococcus neoformans [8]): Active
Activity (Cryptococcus neoformans [9]): Active
IC50 (Cryptococcus neoformans [1]): 2 µg/mL (≈ 6.53 µM)
Activity (Cryptococcus neoformans [10]): Active
inhibition at 8 µg/mL (Cryptococcus neoformans [11]): 50%
Activity (Cryptococcus neoformans [12]): Active
IC50 (Candida albicans [13]): > 64 µg/mL
IC50 (Aspergillus fumigatus [14]): > 64 µg/mL
IC50 (Pichia kudriavzevii): 64 µg/mL (≈ 209 µM)
IC50 (Nakaseomyces glabratus [15]): 16 µg/mL (≈ 52.2 µM)
IC50 (Aspergillus fumigatus [16]): > 64 µg/mL
Activity (Cryptococcus neoformans [17]): Active
Activity (Cryptococcus neoformans [18]): Active
IC50 (Candida albicans [19]): > 64 µg/mL
IC50 ([Candida] auris [20]): 4 µg/mL (≈ 13.1 µM)
IC50 (Candida tropicalis): > 64 µg/mL
IC50 (Candida albicans [21]): 0.25 µg/mL (≈ 0.816 µM)
IC50 ([Candida] auris [22]): > 64 µg/mL
IC50 (Nakaseomyces glabratus [23]): 64 µg/mL (≈ 209 µM)
Activity (Cryptococcus neoformans [24]): Active

C[C@@H]1[C@H](O)[C@@H](C)/C=C/C=C/C=C/C=C/C=C/C=C/C=C/[C@H](O[C@@H]2O[C@H](C)[C@@H](O)[C@H](N)[C@@H]2O)C[C@@H]2O[C@](O)(C[C@@H](O)C[C@@H](O)[C@H](O)CC[C@@H](O)C[C@@H](O)CC(=O)O[C@H]1C)C[C@H](O)[C@H]2C(=O)O [AMPHOTERICIN B]
MIC50 [5]: 0.13 µg/mL (≈ 0.141 µM)
IC50 (Cryptococcus neoformans [1]): 0.25 µg/mL (≈ 0.271 µM)
MFC (Cryptococcus neoformans [25]): 4 µg/mL (≈ 4.33 µM)

CNC1CC(c2ccc(Cl)c(Cl)c2)c2ccccc21.Cl (configuration not stated)
IC50 (Cryptococcus neoformans [1]): 16 µg/mL

CN[C@H]1CC[C@@H](c2ccc(Cl)c(Cl)c2)c2ccccc21 [SERTRALINE]
CLH [26]: 132 µL/min/mg
MST [27]: 11.5 days
half-life [28]: 41.5 min
